# Where two headings read alike, the source gives them in different places. Marks after values point to notes of the source that are not given here.
# Assays:
# [1] = Hygroscopicity according to European Pharmacopoeia 6.0; type: physicochemical; conditions: for Hygroscopicity, % increase in mass: 25 ± 1° C./80 ± 2% RH for 24 h, monocalcium salt
# [2] = Antimicrob. Agents Chemother., 2004, 48(3), 791-798; cited from earlier work
# [3] = Aqueous solubility test according to United States Pharmacopeia 32; type: physicochemical; conditions: for Solubility (mg/ml of solvent) / Parts of solvent required per g of solute / solubility: aqueous; for Solubility (mg/ml of solvent) / solubility: by qualitative observation; for solubility: thermodynamic from solid, read-out: Solubility (mg/ml of solvent)
# [4] = Storage stability of the amorphous form followed by XRPD; type: physicochemical; conditions: 40±1° C. at 75±2% RH, two months
# Experimental: The XRPD of the samples were determined by using Panalytical X'Pert Pro X-Ray Powder Diffractometer in the range 3 to 40 degree 2 theta with a step size of 0.02 and under tube voltage and current of 45 Kv and 40 mA respectively. Copper radiation of wavelength 1.54 angstrom and Xceletor detector were used.
# Fosamprenavir calcium (5 g) was dissolved in methanol (125 ml) at 25° to 30° C. The solution was filtered and fed to a spray dryer (BUCHI, B-290) at feed pump RPM of 1% to 3%. The following parameters were controlled in the spray drying process: • Nozzle Diameter: 0.7 mm • Carrier gas: Nitrogen at 2.0 to 3.0 kg/cm^2 • Air inlet temperature: 80° to 85° C. • Outlet temperature: 35° to 55° C. • Type of atomizer: Two fluid nozzle • The solvent was evaporated at 80° to 85° C. by spray drying. The solid so obtained was collected from the spray dryer and further dried at 55° to 60° C. under vacuum (10 to 15 mmHg) for 10 to 12 hours to obtain the title compound having an XRPD pattern as depicted in FIG. 2.
smiles,measurement,setting,value
"CC(C)CN(C[C@@H](OP(=O)([O-])[O-])[C@H](Cc1ccccc1)NC(=O)O[C@H]1CCOC1)S(=O)(=O)c1ccc(N)cc1.[Ca+2] [(3S)-tetrahydrofuran-3-yl (1S ,2R)-3-[[(4-aminophenyl)sulfonyl](isobutyl)amino]-1-benzyl-2-(phosphonooxy)propylcarbamate monocalcium salt, reference compound]","Hygroscopicity, % increase in mass",[1]; listed as Crystalline form I,11.62%
"CC(C)CN(C[C@@H](OP(=O)([O-])[O-])[C@H](Cc1ccccc1)NC(=O)O[C@H]1CCOC1)S(=O)(=O)c1ccc(N)cc1.[Ca+2] [calcium salt, (3S)-tetrahydrofuran-3-yl (1S ,2R)-3-[[(4-aminophenyl)sulfonyl](isobutyl)amino]-1-benzyl-2-(phosphonooxy)propylcarbamate monocalcium salt]","Solubility over the relevant physiological pH range, compared among forms",[2],reduced solubility
"CC(C)CN(C[C@@H](OP(=O)([O-])[O-])[C@H](Cc1ccccc1)NC(=O)O[C@H]1CCOC1)S(=O)(=O)c1ccc(N)cc1.[Ca+2] [Amorphous fosamprenavir calcium, (3S)-tetrahydrofuran-3-yl (1S ,2R)-3-[[(4-aminophenyl)sulfonyl](isobutyl)amino]-1-benzyl-2-(phosphonooxy)propylcarbamate monocalcium salt]",Hygroscopicity in words,[1],essentially non-hygroscopic
same,"Hygroscopicity, % increase in mass",[1],17.5%
same,Solubility (mg/ml of solvent),"[3]; pH 1.47, monocalcium salt",1.25 mg/mL
same,Parts of solvent required per g of solute,"[3]; pH 1.47, monocalcium salt",800 parts
same,Solubility (mg/ml of solvent),"[3]; pH 3.27, monocalcium salt",10 mg/mL
same,Parts of solvent required per g of solute,"[3]; pH 3.27, monocalcium salt",100 parts
same,Parts of solvent required per g of solute,"[3]; pH 4.11, monocalcium salt",150 parts
same,Solubility (mg/ml of solvent),"[3]; pH 5.02, monocalcium salt",6.7 mg/mL
same,Parts of solvent required per g of solute,"[3]; pH 5.02, monocalcium salt",150 parts
same,solubility,"[3]; pH 4.11, aqueous buffer, pH 4.11",6.7 mg/mL
same,solubility,"[3]; pH 6.27, aqueous buffer, pH 6.27",0.1 mg/mL
same,Volume of aqueous solution required for dissolving about 1 g,[3]; pH of about 3 to about 5.5,not more than 200 ml
same,Solubility compared with crystalline form I of fosamprenavir calcium,[3]; relevant physiological pH range,superior
same,Change in XRPD pattern / conversion into crystalline form on storage,"[4]; listed as Example 2, monocalcium salt",no change in the XRPD pattern was observed
same,Change in XRPD pattern / conversion into crystalline form on storage,[4]; monocalcium salt,not converted into any crystalline form
"CC(C)CN(C[C@@H](OP(=O)([O-])[O-])[C@H](Cc1ccccc1)NC(=O)O[C@H]1CCOC1)S(=O)(=O)c1ccc(N)cc1.[Ca+2] [Crystalline form I of fosamprenavir calcium] [(3S)-tetrahydrofuran-3-yl (1S ,2R)-3-[[(4-aminophenyl)sulfonyl](isobutyl)amino]-1-benzyl-2-(phosphonooxy)propylcarbamate monocalcium salt, reference compound]",Solubility (mg/ml of solvent),[3]; pH 1.47,0.5 mg/mL
same,Parts of solvent required per g of solute,"[3]; pH 1.47, monocalcium salt",2100 parts
same,Solubility (mg/ml of solvent),"[3]; pH 3.27, monocalcium salt",2.5 mg/mL
same,Parts of solvent required per g of solute,"[3]; pH 3.27, monocalcium salt",400 parts
same,Solubility (mg/ml of solvent),"[3]; pH 4.11, monocalcium salt",4.0 mg/mL
same,Parts of solvent required per g of solute,"[3]; pH 4.11, monocalcium salt",250 parts
same,Solubility (mg/ml of solvent),"[3]; pH 5.02, monocalcium salt",3.3 mg/mL
same,Parts of solvent required per g of solute,"[3]; pH 5.02, monocalcium salt",300 parts
same,Parts of solvent required per g of solute,"[3]; pH 6.27, monocalcium salt","> 10,000** parts"

# Reference: US20120135965A1, “AMORPHOUS FOSAMPRENAVIR CALCIUM” (RANBAXY LABORATORIES LIMITED, priority 2009, published 2012)
